Results from patent publication US20080299123A1, “TREATMENT OF CHEMOTHERAPY- OR RADIOTHERAPY-RESISTANT TUMORS” (Deutsches Krebsforschungszentrum Stiftung des offentlichen …, priority 2006, published 2008).

Tests used:
Format in all cases: cell-based, human
[1] = tested on: PT45-P1res cells; assay: Caspase-3/-7 assay in PT45-P1res cells; conditions: for apoptosis induction after etoposide treatment (caspase-3/-7): inhibitor 10 μmol/L, 20 μg/mL etoposide 24 hours
Method: (a) PT45-P1 res cells were transfected with control siRNA or with two L1CAM specific siRNAs. Western blotting for the detection of full-length L1CAM or of HSP90 as a control for equal protein load was performed (upper panel). In parallel, siRNA transfected PT45-P1res cells were treated with 20 μg/mL etoposide or not for 24 hours and caspase-3/-7 activity was determined. (b) siRNA transfected PT45-P1res cells were subjected to L1CAM immunostaining (L1-11A antibody) or staining with an isotype matched control antibody followed by flow cytometry. One representative histogram is shown. (c) siRNA transfected PT45-P1res cells were analysed by western blotting for the detection of full-length L1 CAM, αv-integrin or HSP90 (d) After overnight siRNA transfection, cells were either left untreated or were either treated with 20 μg/mL etoposide or with 5 μg/mL gemcitabine for 24 hours, followed by either AnnexinV/PI staining and flow cytometry (AnnexinV positive cells over basal) or by caspase-3/-7 assay (n-fold induced caspase-3/-7 activity of basal). (e) PT45-P1res cells were either left untreated (w/o) or were treated with 20 μg/mL etoposide in the absence (w/o) or presence of either 5 μg/mL anti L1CAM antibody (Clone L1-11A) or 5 μg/mL isotype matched control antibody. After 24 hours, cells were analysed by AnnexinV/PI staining or by caspase-3/-7 assay. Means±SD from three independent experiments are shown. * indicates p<0.05.
(§1) As described elsewhere (Sebens Müerköster et al., 2006), apoptosis was determined by staining with annexinV/propidium iodide (Biocarta, Hamburg, Germany) and subsequent fluorescence flow cytometry (GalaxyArgon Plus; DAKO Cytomation, Hamburg, Germany) using the FLOMAX software, and by the detection of caspase-3/-7 activity using a homogeneous luminescent assay (Promega, Mannheim, Germany). All samples were measured in duplicates.
(§2) For L1CAM transfection, PT45-P1 cells were seeded into 6 well plates (2×10^5 cells/well), were grown overnight, followed by transfection with 5 μL/well DIMRIE reagent (Invitrogen) and 0.6 μg/well of the following plasmids: pcDNA3.1 (mock) or pcDNA3.1-L1CAM (L1CAM). Upon transfection for 18 hours, 1 mL medium containing 20% FCS was added and cells were left untreated or were treated as indicated for further 24 hours. For knock down of L1CAM, PT45-P1res cells were seeded into 12 well plates (1×10^5 cells/well), were grown overnight followed by transfection with 12 μL/well RNAiFect reagent (Invitrogen) and 2 μg/well of either Stealth negative control siRNA (Invitrogen) or Stealth L1CAM siRNA (Invitrogen). After overnight transfection, cells were either left untreated or treated as indicated for further 24 hours.

[2] = tested on: L1CAM; assay: L1CAM expression in PT45-P1res cells (western blotting, flow cytometry, real-time PCR); conditions: for L1CAM expression (full-length 220 kDa and 32 kD fragment): inhibitor 10 μmol/L, 24 hours
Method: After washing in PBS, cells grown in 6-well culture plates were detached with 5 mmol/L EDTA in PBS and then washed with PBS once again. Blocking was conducted in 1% BSA/PBS for 60 min. at room temperature followed by incubation with the anti L1CAM antibody L1-11A or an isotype matched control antibody (1:1000, in 1% BSA/PBS) at 4° C. overnight. Then, cells were washed three times in PBS followed by incubation (60 min, 37° C.) with a goat-anti mouse antibody conjugated with Alexa flour 488 (Dianova, Hamburg, Germany) diluted 1:500 in 1% BSA/PBS. After washing in PBS, cells were resuspended in 500 μL PBS and analysed by fluorescence flow cytometry.
(§3) Cells were seeded into 6 well and 12 well plates, respectively, and transfected or treated as indicated. Then, cells were washed once with PBS and lysed with 1 volume of 2×SDS sample buffer (128 mmol/L Tris-Base, 4.6% SDS, 10% glycerol). Samples were heated for 5 minutes at 95° C. and put on ice for 2 minutes. Protein concentrations were determined using the Dc Protein assay (BioRad). Ten μg of protein adjusted to an appropriate volume of SDS sample buffer containing 0.2 mg/mL bromphenolblue (Serva, Heidelberg, Germany) and 2.5% β-mercaptoethanol (Biomol, Hamburg, Germany) were submitted to electrophoresis on a 4-20% ProGel-Tris-glycin-gel (Anamed, Darmstadt, Germany) and immunoblotting was performed as described previously (Arlt et al, 2001). For detection of L1CAM, a monoclonal antibody (clone UJ127 from Acris Antibodies) was diluted at a concentration of 0.4 μg/mL in 5% nonfat milk powder and 0.05% Tween in TBS (blotto) and incubated overnight at 4° C. For detection of the cytoplasmic domain of L1CAM, the pcytL1 antibody (Mechtersheimer et al., 2001) was used at a concentration of 1 μg/mL in blotto and incubated overnight at 4° C. As control of equal protein load, a polyclonal rabbit antibody for HSP90 (Santa Cruz, Heidelberg, Germany) was diluted 1:2000 in blotto. The mouse anti CD51 antibody from Beckman Coulter GmbH (Krefeld, Germany) was used at a concentration of 1:500 in blotto for detection of human αv integrin. Incubation with the primary antibodies was performed overnight at 4° C. For detection of the primary antibodies, anti-mouse and anti-rabbit HRP-linked antibodies (Cell Signaling), respectively, were used at a dilution of 1:2000 in blotto-TBST at room temperature for 1 hour. After washing in TBST, blots were developed using the LumiGlo peroxidase detection kit (Cell Signaling).
2 μg of total RNA were reverse-transcribed into single-stranded cDNA, as described previously (Schafer et al., 1999). Two μL of cDNA and 0.2 μmol/L gene-specific primers were adjusted with RNAse-free water to a volume of 15 μL. To this mixture, 15 μL of iQ SYBR Green Supermix (BioRad) were added. Primers for the detection of L1CAM (Gavert et al., 2005) were used under the following conditions: 95° C./1 min; 95° C./1 min, 52° C./30 see, 72° C./30 see for 40 cycles; 72° C./10 min. Primers for the detection of iNOS were from Biosource (Ratingen, Germany) and used under the following PCR conditions: 95° C./5 min; 95° C./45 sec, 60° C./45 sec, 72° C./45 sec for 40 cycles; 72° C./10 min. For control, β-actin was amplified in parallel using primers from BD Biosciences Clontech. […] Data were collected during annealing steps and were further analysed by using the i-Cycler iQ Optical system software (BioRad). All samples were analysed in duplicates and data are expressed as amount of mRNA in arbitrary units.

[3] = tested on: L1CAM transfected PT45-P1 cells; assay: Caspase-3/-7 assay in L1CAM transfected PT45-P1 cells; conditions: inhibitor 10 μmol/L, 20 μg/mL etoposide 24 hours
Method: (§4) PT45-P1res cells (a,b) or PT45-P1 cells transfected with L1CAM or an empty control vector (mock) (c,d) were left untreated (w/o) or were either treated with Tapi-0, Tapi-1, GM6001 or L685,458 (each 10 μmol/L) for 24 hours. (a,c) Cellular lysates were subjected to western blotting using either the antibody clone UJ127 from Acris detecting only full-length L1CAM or the pcytL1 antibody detecting also the cytoplasmic part of L1CAM. HSP90 was detected as a control for equal protein load. (b,d) Thirty minutes after treatment with the respective inhibitor, cells were either left untreated or treated with 20 μg/mL etoposide for 24 hours. Then, cells were analysed for caspase-3/-7 activity expressed as n-fold induction of caspase-3/-7 activity of basal. Means±SD from three independent experiments are shown. * indicates p<0.05.
as §1, §2

[4] = tested on: L1CAM; assay: L1CAM cleavage by western blotting in L1CAM transfected PT45-P1 cells; conditions: inhibitor 10 μmol/L, 24 hours
Method: as §4, §3

[5] = Induction of apoptosis, Nicoletti staining, in HEK293 cells; conditions: human; wild-type (parental) HEK293; C2-ceramide 40 μM or staurosporine 2 μM, 24 h, serum-free, Nicoletti staining; read-out: cells still viable after treatment
Method: (§5) Cells (1×10^5 cells per well) were cultured in duplicate in 6 well culture plates and, after washing once with PBS, incubated for the indicated timepoints with or without apoptotic stimuli in serum-free medium. Staurosporine (2 μM), C2-ceramide (40 μM) or cisplatin (17 μM) were used as apoptotic reagents. For hypoxia studies, cells were incubated for different time points under hypoxic conditions (1% O2) using a Reming Bioinstruments chamber and oxygen regulator (Reming Bioinstruments, Redfield, N.Y.).
(§6) For quantification of DNA fragmentation, supernatants were centrifuged at 200×g. The cell pellet was washed once in PBS (pH 7.4) and lysed in a hypotonic lysis buffer (0.1% sodium citrate, 0.1% Triton X-100, 50 μg/ml propidiumiodite) at 4° C. overnight. The nuclei were then analyzed for DNA content by flow cytometry. The staining of cells for flow cytometry with mAbs and PE-conjugated secondary antibodies has been described. Cells were analysed with a FACScan using Cellquest or FlowJo software from Becton Dickinson (Heidelberg, Germany).

[6] = Induction of apoptosis, Nicoletti staining, in HEK293-hL1 cells; conditions: human; L1-expressing HEK293; C2-ceramide 40 μM or staurosporine 2 μM, 24 h, serum-free, Nicoletti staining; read-out: cells still viable after treatment
Method: as §5, §6

[7] = tested on: NO release; assay: NO-assay in supernatants of PT45-P1res cells; conditions: 250 ng/mL IL1-RA 24 hours
Method: PT45-P1res cells were transfected with a control siRNA or with a L1CAM specific siRNA. (a) RNA from transfected PT45-P1res cells was subjected to RT and subsequent Real-time PCR using primers specific for iNOS. In parallel, a Real-time PCR was conducted for β-actin, which was used as a control. Results from one representative out of three experiments are shown. Data are expressed as amount of mRNA in arbitrary units. Each sample was measured in duplicates. (b) siRNA transfected cells (16 h) were either left untreated or were treated with 250 ng/mL IL1RA for 24 hours. Then, supernatants were cleared and subjected to a commercial NO assay. The amount of NO was normalized to equal cell number which was determined in parallel (expressed as μmol NO/10^5 cells). (c) siRNA transfected cells (16 h) were either left untreated or were treated with 250 ng/mL IL1-RA and 20 μg/mL etoposide, either alone or in combination for 24 hours. Then, cells were analysed for caspase-3/-7 activity expressed as n-fold induced caspase-3/-7 activity of basal. Means±SD from three independent experiments are shown. * indicates p<0.05.
Cells were seeded for transfection and cultured as described above. […] NO secreted into cell culture supernatants was quantified using the Total nitric oxide (NO) calorimetric assay (R&D Systems). […] Concentrations of measured NO were normalized to the cell numbers determined in parallel.

Molecule | apoptosis induction after etoposide treatment (caspase-3/-7) [1] | L1CAM expression (full-length 220 kDa and 32 kD fragment) [2] | apoptosis inducing effect of etoposide (caspase-3/-7) [3] | expression of full-length L1CAM and level of the 32 kD fragment [4] | other results
CC(C)C[C@H](CC(=O)NO)C(=O)N[C@@H](Cc1ccc2ccccc2c1)C(=O)N[C@@H](C)C(=O)NCCN [Tapi-1] | did not significantly affect apoptosis induction after etoposide treatment | neither of the inhibitors changed L1 CAM expression | nor affect the apoptosis inducing effect of etoposide | did neither influence the expression of full-length L1CAM nor increased the level of the 32 kD fragment | –
CN[C@@H]1C[C@H]2O[C@@](C)([C@@H]1OC)n1c3ccccc3c3c4c(c5c6ccccc6n2c5c31)C(=O)NC4 [staurosporine] | – | – | – | – | viability at 24 h, 2 μM [5]: 59%; viability at 24 h, 2 μM [6]: 77%
CC(C)C[C@H](NC(=O)[C@H](Cc1ccccc1)C[C@@H](O)[C@H](Cc1ccccc1)NC(=O)OC(C)(C)C)C(=O)N[C@@H](Cc1ccccc1)C(N)=O [L685,458] | did not significantly affect apoptosis induction after etoposide treatment | neither of the inhibitors changed L1 CAM expression | nor affect the apoptosis inducing effect of etoposide | did neither influence the expression of full-length L1CAM nor increased the level of the 32 kD fragment | –
IL1-RA: Interleukin 1 receptor antagonist from R&D Systems | – | – | – | – | etoposide induced caspase activation ([1]; 250 ng/mL IL1-RA, control transfected cells): increased; NO levels ([7]; cells with L1CAM knock down): no further reducing effect; NO levels ([7]; control siRNA transfected cells): could be decreased; L1CAM expression (mRNA and protein) ([2]; 250 ng/mL IL1-RA, 6 or 24 hours): reduced L1CAM expression
CNC(=O)[C@H](Cc1c[nH]c2ccccc12)NC(=O)[C@@H](CC(=O)NO)CC(C)C [GM6001] | did not significantly affect apoptosis induction after etoposide treatment | neither of the inhibitors changed L1 CAM expression | nor affect the apoptosis inducing effect of etoposide | did neither influence the expression of full-length L1CAM nor increased the level of the 32 kD fragment | –
CC(=O)NC(C(=O)O)C(C)(C)SN=O (racemic) [SNAP, S-Nitroso-N-acetyl-D,L-penicillamine] | – | – | – | – | increased caspase activity during L1CAM knock-down ([1]; 200 μmol/L SNAP with 20 μg/mL etoposide, 24 hours): completely reversed the increased caspase activity
